Consider one molecule from PMC3742231 (International Journal of Molecular Sciences, 2013).

Series [1] concerns the target T1, CYP1A2 (Homo sapiens, UniProt P05177).
T1 sequence (P05177 1-516): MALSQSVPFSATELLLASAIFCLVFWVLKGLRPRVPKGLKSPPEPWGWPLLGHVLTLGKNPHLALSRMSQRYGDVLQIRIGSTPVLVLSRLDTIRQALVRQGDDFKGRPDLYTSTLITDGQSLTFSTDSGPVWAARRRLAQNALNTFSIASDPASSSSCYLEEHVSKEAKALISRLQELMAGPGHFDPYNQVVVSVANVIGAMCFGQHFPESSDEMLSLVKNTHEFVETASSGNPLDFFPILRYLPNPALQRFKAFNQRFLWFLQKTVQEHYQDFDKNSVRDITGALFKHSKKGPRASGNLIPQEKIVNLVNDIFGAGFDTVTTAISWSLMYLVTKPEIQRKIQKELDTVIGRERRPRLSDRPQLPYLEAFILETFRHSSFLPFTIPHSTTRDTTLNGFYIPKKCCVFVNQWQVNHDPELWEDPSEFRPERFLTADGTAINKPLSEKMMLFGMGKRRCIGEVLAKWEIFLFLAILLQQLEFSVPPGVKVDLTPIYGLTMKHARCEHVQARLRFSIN
The experiment in a line: biochemical. Here is the method: (§1) Human liver microsomes were prepared and pooled from ten human livers (HL20–24,28–32) as previously described. Human liver samples were obtained from the University Hospital of Oulu as surplus tissue from cadaver kidney transplant donors. The collection of surplus tissue was approved by the Ethics Committee of the Medical Faculty of the University of Oulu, Finland. All donors were Caucasians ranging in age from 21 to 62 years; four were female and six were male. Detailed information on each donor has been published previously. Protein concentrations were measured using the Bradford method.
(§2) In vitro inhibition of CYP isoforms was first assessed using the N-in-one approach (also called the cocktail approach). CYP-selective substrates and reactions are listed in Table 1; concentrations were roughly at or below the respective Michaelis-Menten coefficients. […] A Micromass LCT time-of-flight high-resolution mass spectrometer (Micromass Ltd., Manchester, UK) equipped with a Z-spray electrospray ionization source was used for the monitoring of CYP-selective reactions. Integrated mass chromatogram peak areas were normalized versus internal standards before comparing metabolites in different preparations. More details of the assay are available in previous publications.

The target in series [2] is CYP3A4 (Homo sapiens, UniProt P08684). The experiment in a line: biochemical. The following applies: human liver microsomes. Here is the method: as §1, §2
Chain of CYP3A4 (Homo sapiens, UniProt P08684) (P08684 whole entry): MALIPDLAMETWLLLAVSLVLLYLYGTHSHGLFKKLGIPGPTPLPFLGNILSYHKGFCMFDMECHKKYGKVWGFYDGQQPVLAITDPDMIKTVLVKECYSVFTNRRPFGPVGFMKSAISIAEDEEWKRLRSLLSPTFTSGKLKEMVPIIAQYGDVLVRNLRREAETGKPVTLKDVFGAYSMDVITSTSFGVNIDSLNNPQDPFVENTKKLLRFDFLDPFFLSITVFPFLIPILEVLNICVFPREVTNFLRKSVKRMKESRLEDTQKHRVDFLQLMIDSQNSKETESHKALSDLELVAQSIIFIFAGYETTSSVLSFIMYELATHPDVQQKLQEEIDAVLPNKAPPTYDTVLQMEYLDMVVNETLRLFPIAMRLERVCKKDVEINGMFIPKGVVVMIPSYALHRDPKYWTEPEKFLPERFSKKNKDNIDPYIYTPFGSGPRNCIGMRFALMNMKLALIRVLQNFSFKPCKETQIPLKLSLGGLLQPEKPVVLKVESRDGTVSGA
For series [3], the system named is CYP2C19. The settings on record: 0.2, 2 and 20 μM for 48 h. Here is the method:
(§3) Freshly isolated human hepatocytes were obtained from the UK Human Tissue Bank (Leicester, UK).
(§4) Omeprazole (CYP1A2 inducer; 30 μM), phenobarbital (CYP2B6 inducer; 1 mM) and rifampicin (CYP2C9, CYP2C19, and CYP3A4 inducer; 50 μM) dissolved in dimethyl sulfoxide (0.5% v/v final), served as reference inducers.

A further series relates to CYP enzyme activities. The settings on record: cultured human hepatocytes. Here is the method:
as §3, §4

Series [4] deals with CYP3A4. The settings on record: 20 μM, 48 h. Here is the method:
as §3, §4

The subject of series [5] is CYP2B6. The settings on record: 20 μM, 48 h. How it is done:
as §3, §4

Another series relates to CYP2C9. The following applies: 0.2, 2 and 20 μM for 48 h. Here is the method:
as §3, §4

In series [6] the test system is CYP1A2. The following applies: 0.2, 2 and 20 μM for 48 h. How it is done: as §3, §4
Series [7] can be described thus: Overall safety in the three clinical studies. The format is in vivo, human. The settings on record: healthy postmenopausal women, with and without ospemifene. The text has this: All experiments with human subjects were based on voluntary informed consent and the clinical study protocols had appropriate ethical and regulatory approval. Subjects were asked to immediately report any significant adverse events (AEs) that occurred during the study; minor AEs were reported at clinic visits. AEs were coded and classified according to the Medical Dictionary for Regulatory Activities.

A further series has as its target CYP2D6 (Homo sapiens, UniProt P10635). The experiment in a line: N-in-one CYP inhibition assay in human liver microsomes; type of inhibition. Here is the method: as §1, §2
(§5) Dixon, Lineweaver-Burk, Hanes, and Hofstee plots were used for the analysis of the type of inhibition.
A general note: Liver microsomes are vesicles of endoplasmic reticulum, rich in cytochrome P450 enzymes.

The target of the next series is T2, CYP2C8 (Homo sapiens, UniProt P10632).
T2 sequence (P10632 1-490): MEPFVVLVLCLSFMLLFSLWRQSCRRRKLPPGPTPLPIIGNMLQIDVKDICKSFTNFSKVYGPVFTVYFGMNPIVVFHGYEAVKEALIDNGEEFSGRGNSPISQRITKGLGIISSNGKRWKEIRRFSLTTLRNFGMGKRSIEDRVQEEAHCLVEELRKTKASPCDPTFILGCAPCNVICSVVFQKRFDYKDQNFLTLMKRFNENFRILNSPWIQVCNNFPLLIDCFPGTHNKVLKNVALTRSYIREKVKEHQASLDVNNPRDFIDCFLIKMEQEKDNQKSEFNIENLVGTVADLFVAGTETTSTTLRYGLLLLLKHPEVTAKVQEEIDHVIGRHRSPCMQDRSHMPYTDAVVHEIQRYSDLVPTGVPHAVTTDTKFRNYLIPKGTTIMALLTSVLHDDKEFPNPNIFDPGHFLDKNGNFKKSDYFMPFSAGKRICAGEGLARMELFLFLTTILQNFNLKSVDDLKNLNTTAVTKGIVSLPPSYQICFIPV
The description is as above. How it is done: as §1, §2, §5

The target in series [8] is T3, CYP2B6 (Homo sapiens, UniProt P20813).
T3 sequence (P20813 1-491): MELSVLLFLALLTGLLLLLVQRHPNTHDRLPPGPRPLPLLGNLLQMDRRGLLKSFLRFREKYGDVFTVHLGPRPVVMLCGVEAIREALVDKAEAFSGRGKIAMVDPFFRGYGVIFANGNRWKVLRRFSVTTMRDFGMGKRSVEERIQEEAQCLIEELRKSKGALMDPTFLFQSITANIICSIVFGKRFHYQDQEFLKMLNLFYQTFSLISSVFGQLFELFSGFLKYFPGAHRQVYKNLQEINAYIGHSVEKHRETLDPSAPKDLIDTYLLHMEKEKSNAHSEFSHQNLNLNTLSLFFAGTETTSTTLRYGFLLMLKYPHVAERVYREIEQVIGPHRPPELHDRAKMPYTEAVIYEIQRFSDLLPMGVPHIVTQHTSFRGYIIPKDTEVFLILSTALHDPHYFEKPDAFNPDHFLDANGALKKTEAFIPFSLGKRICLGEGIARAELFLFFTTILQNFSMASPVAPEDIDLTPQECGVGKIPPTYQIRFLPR
Description: biochemical. Here is the method: as §1, §2, §5

For series [9], the target named is CYP2C19 (Homo sapiens, UniProt P33261). The experiment in a line: biochemical. The settings on record: for IC50: human liver microsomes, probe 2 μM. How it is done:
as §1, §2, §5

Bounds are passed on as bounds.

Chain of CYP2C19 (Homo sapiens, UniProt P33261) (P33261 whole entry): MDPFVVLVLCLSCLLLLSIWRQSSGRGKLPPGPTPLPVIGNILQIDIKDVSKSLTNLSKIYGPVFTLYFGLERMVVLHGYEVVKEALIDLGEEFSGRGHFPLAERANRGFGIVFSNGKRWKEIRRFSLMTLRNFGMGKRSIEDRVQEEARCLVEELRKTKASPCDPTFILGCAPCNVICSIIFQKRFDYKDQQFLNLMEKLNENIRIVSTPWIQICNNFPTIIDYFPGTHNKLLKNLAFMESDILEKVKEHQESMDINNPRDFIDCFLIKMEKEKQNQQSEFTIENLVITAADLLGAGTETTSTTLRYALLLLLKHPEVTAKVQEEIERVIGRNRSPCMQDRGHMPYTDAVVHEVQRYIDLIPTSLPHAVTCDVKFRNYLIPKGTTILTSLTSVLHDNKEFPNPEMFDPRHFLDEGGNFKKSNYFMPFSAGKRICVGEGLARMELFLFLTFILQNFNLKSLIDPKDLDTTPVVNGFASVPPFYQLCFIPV
Chain of CYP2D6 (P10635 whole entry): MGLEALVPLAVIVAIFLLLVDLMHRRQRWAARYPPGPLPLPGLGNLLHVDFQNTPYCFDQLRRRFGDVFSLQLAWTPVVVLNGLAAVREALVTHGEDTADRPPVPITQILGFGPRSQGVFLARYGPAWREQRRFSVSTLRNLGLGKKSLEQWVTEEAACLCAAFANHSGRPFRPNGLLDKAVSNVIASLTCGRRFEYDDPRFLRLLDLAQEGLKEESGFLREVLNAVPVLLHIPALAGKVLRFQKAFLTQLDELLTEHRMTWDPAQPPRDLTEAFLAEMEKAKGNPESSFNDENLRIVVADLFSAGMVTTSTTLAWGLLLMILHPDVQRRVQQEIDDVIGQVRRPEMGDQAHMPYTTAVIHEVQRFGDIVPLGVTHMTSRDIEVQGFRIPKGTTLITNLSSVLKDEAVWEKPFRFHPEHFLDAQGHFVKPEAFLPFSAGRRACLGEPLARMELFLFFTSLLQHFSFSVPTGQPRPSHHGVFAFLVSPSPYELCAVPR

A word on the IC50: it is the point on the concentration scale where inhibition reaches its midpoint. Low readings indicate greater potency, high ones weaker potency. For `OCCOc1ccc(/C(=C(/CCCl)c2ccccc2)c2ccccc2)cc1` [Ospemifene], the IC50 on CYP1A2 [1] is above 100 µM; against CYP3A4 [2] (IC50, Midazolam 1′-hydroxylation, probe 0.4 μM), above 100 µM; against CYP3A4 [2] (IC50, Omeprazole 3-hydroxylation, probe 2 μM), 37.9 µM; against CYP3A4 [2] (IC50, Omeprazole sulfoxidation, probe 2 μM) it was above 100 µM; on CYP3A4 [2] (IC50, Testosterone 6β-hydroxylation, probe 1 μM) it was above 100 µM; against CYP2D6 it was 48.7 µM. The IC50 against CYP2C8 was found to be 36.4 µM; at CYP2B6 [8], 7.8 µM; on CYP2C19 [9] (IC50, Omeprazole 5-hydroxylation), 22.5 µM; at CYP2C19 [9] (IC50, Omeprazole demethylation), 47.2 µM. In addition, the “Change in CYP2C19 activity” value in the series with CYP2C19 [3] was “did not cause any relevant changes”. For the same molecule, the “Induction of CYPs” value in the series with CYP enzyme activities is at most 2.4 fold. Further, the “Induction of CYP3A4 activity” value in the series on CYP3A4 [4] is reported as “approximately two-fold”. Besides, the “Induction of CYP2B6 activity” value in the series with CYP2B6 [5] is “approximately two-fold”. The “Change in CYP2C9 activity” value in the series on CYP2C9 is reported as “did not cause any relevant changes”. Further, the “Change in CYP1A2 activity” value in the series with CYP1A2 [6] was “did not cause any relevant changes”. For the same molecule, the Tolerability entry in series [7] is recorded as “well tolerated”. Moreover, the Type of inhibition result at CYP2D6 (results not shown) is “competitive”; at CYP2C8 (results not shown), “likely competitive”; on CYP2B6 [8] (results not shown) it was “competitive”; at CYP2C19 [9] (results not shown), “noncompetitive”.
